{"source": "patent US20230263786A1", "about": "“MODULATION OF DRUG-DRUG INTERACTIONS OF VADADUSTAT” (Akebia Therapeutics, Inc., priority 2020, published 2023)", "key": {"CYP2B6": {"target": "T1, CYP2B6 (Homo sapiens, UniProt P20813)", "T1 sequence (P20813 1-491)": "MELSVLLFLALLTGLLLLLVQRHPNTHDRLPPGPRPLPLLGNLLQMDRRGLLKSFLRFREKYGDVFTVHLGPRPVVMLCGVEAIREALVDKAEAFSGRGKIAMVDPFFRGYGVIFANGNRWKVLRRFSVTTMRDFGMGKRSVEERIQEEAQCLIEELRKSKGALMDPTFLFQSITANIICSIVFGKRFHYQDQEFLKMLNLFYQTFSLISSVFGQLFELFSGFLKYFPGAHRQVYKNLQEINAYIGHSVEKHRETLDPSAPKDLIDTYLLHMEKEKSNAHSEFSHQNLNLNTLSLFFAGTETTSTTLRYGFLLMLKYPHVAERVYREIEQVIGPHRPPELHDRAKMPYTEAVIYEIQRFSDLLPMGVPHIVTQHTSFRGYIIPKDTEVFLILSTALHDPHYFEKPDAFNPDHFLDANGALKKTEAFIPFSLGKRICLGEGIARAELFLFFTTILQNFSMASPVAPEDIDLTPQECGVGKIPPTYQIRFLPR", "assay": "CYP2B6 inhibition in vitro", "format": "in vitro ADME"}, "[1]": {"assay": "Influence of meal on pharmacokinetics, single 450 mg dose", "details": "male, human, in vivo, oral", "method": "The median tmax of this drug was prolonged by postprandial administration for about 1.5 hours as compared with fasting."}, "UGT1A1": {"target": "T2, UGT1A1 (Homo sapiens, UniProt P22309)", "T2 sequence (P22309 26-533)": "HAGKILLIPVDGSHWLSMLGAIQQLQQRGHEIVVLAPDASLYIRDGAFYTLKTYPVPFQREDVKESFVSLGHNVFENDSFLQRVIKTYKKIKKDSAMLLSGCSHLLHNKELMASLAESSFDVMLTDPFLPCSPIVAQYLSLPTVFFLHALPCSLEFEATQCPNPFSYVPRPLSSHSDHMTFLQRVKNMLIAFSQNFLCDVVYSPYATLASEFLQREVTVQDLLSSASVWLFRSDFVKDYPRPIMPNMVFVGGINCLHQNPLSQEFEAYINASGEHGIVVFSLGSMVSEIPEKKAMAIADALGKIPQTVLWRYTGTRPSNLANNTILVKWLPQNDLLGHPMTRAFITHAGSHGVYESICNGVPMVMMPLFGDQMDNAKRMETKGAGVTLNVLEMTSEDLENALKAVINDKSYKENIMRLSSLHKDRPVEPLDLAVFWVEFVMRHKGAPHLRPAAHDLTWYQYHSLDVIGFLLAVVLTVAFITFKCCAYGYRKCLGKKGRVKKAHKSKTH", "assay": "UGT1A1 inhibition in vitro", "format": "in vitro ADME"}, "[2]": {"assay": "Phase 1 oral iron interaction study, Cohort 2 (before meal): sucroferric oxyhydroxide", "format": "in vivo, human", "details": "for AUC(0-inf) / AUC(0-t) / Cmax / half-life: male, human, plasma, oral; for AUC(0-inf): read-out: AUC(0-inf), LS geometric mean; for AUC(0-t): read-out: AUC(0-last), LS geometric mean; for Cmax: read-out: Cmax, LS geometric mean; for half-life: read-out: t1/2, LS geometric mean (converted)", "from_the_text": "The study included 3 periods as follow: • Screening: performed within 4 weeks before the day of administration of the study drug. • Evaluation period: Cohort 1 was confined to the study site for 10-night, 11-day. Cohort 2 and Cohort 3 were confined to the study site for 7 nights and 8 days. • Post-administration tests: performed 3 days after administration of the last dose of the study drug.\nIn Cohort 2, 20 subjects were further randomized into 2 groups (10 subjects per group) and the evaluation period was divided into 2 periods during the study:\nAdministration of vadadustat tablets alone: after fasting for at least 10 hours and immediately before eating breakfast (5 minutes before starting the meal), 1 vadadustat tablet (150 mg) will be taken orally with 200 mL of water, then breakfast would be eaten over a period of 10 minutes (extra water may be drunk if more is needed when taking the tablet, and the extra volume would be recorded). After breakfast, subjects would fast until the end of the collection of blood samples at 4 hours after administration of the study drug. Subjects would eat lunch over a period of 20 minutes after blood samples were collected at 4 hours after administration of the study drug. After lunch, subjects would fast until dinner, when they would eat dinner over a period of 20 minutes at 10 hours after administration of the study drug. Subjects would fast from dinner until breakfast the next morning.\nAdministration of vadadustat tablets and sucroferric oxyhydroxide: after fasting for at least 10 hours and immediately before eating breakfast (5 minutes before starting the meal), subjects would chew and swallow 2 tablets of sucroferric oxyhydroxide (containing 1000 mg of iron), then 1 vadadustat tablet (150 mg) would be taken orally with 200 mL of water, then breakfast would be eaten over a period of 10 minutes (extra water may be drunk if more is needed when taking the tablets, and the extra volume would be recorded). After breakfast, subjects would fast until the end of the collection of blood samples at 4 hours after administration of the study drug. After blood samples were collected at 4 hours after administration of the study drug and immediately before lunch, subjects would chew and swallow 2 tablets of sucroferric oxyhydroxide (containing 1000 mg of iron), then eat lunch over a period of 20 minutes. After lunch, subjects will fast until dinner, and immediately before dinner at 10 hours after administration of the study drug, chew and swallow 2 tablets of sucroferric oxyhydroxide (containing 1000 mg of iron), then eat dinner over a period of 20 minutes. Subjects would fast from dinner until breakfast the next morning."}, "human PHD1": {"target": "human PHD1 (Homo sapiens, UniProt Q96KS0)", "sequence (Q96KS0 whole entry)": "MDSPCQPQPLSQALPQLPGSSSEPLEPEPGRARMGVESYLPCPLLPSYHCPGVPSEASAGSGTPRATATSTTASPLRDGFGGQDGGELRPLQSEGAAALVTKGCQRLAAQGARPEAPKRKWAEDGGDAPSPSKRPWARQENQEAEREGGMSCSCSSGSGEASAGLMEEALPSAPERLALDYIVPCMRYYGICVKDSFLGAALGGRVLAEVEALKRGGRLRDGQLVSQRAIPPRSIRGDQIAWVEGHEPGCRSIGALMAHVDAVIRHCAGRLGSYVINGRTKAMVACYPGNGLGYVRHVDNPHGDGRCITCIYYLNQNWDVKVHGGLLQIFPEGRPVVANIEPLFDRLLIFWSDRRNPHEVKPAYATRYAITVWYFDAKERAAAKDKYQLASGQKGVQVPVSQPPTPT", "assay": "PHD inhibitory action, PHD1", "format": "biochemical", "details": "in vitro"}, "[3]": {"assay": "Phase I furosemide interaction study", "format": "in vivo, human", "details": "furosemide 40 mg and vadadustat 600 mg once daily", "method": "The study included 3 periods as follow: a 28-day screening period, 7-21 day in clinic period, and a 30-day follow up period post last dose.\nOn Days 3 to 6, subjects received vadadustat 600 mg (once daily)."}, "[4]": {"assay": "Plasma protein binding, equilibrium dialysis", "format": "in vitro ADME", "details": "human, in vitro, read-out: human plasma protein binding rate", "from_the_text": "The human plasma protein binding rate of this drug was higher than 99% (in vitro, equilibrium dialysis)."}, "[5]": {"assay": "Phase I interaction study with statins and sulfasalazine: safety and tolerability", "format": "in vivo, human", "details": "taken alone or during treatment with rosuvastatin, pravastatin, atorvastatin, or simvastatin", "method": "The pharmacokinetic (pK) parameters and safety of said drugs administered alone and in combination with Compound 1 were characterized.\nSafety and Tolerability. Subject safety were evaluated throughout the study beginning on Day 1 (Baseline) until 30 days (±2 days) post last dose. The following safety assessments were performed: physical exam, 12-lead ECG (electrocardiogram), vital signs, clinical laboratory results, QuantiFERON®-TB Test, serology, and pregnancy. Adverse events (AE) were summarized."}, "[6]": {"details": "After Meal, healthy adult males"}, "[7]": {"details": "150 mg with sucroferric oxyhydroxide (1000 mg iron), before meal"}}, "note": "Read-outs that look alike come from different tables or passages of the source."}
{"molecule": "O=C(O)CNC(=O)c1ncc(-c2cccc(Cl)c2)cc1O", "note": "[Compound 1, {[5-(3-chlorophenyl)-3-hydroxypyridine-2-carbonyl]amino}acetic acid]", "values": [{"measurement": "inhibitory effect on CYP2B6", "setting": "CYP2B6", "result": "inhibitory effect"}, {"measurement": "AUC(0-inf)", "setting": "[1]; [6]", "result": "351000 ± 101000", "unit": "ng·h/mL"}, {"measurement": "Cmax", "setting": "[1]; [6]", "result": "46300 ± 12200", "unit": "ng/mL"}, {"measurement": "Tmax", "setting": "[1]; After Meal, healthy adult males, read-out: tmax", "result": 3.52, "unit": "h"}, {"measurement": "AUC(0-inf)", "setting": "[1]; Fasting, healthy adult males", "result": "371000 ± 100000", "unit": "ng·h/mL"}, {"measurement": "Cmax", "setting": "[1]; Fasting, healthy adult males", "result": "63100 ± 14600", "unit": "ng/mL"}, {"measurement": "Tmax", "setting": "[1]; Fasting, healthy adult males, read-out: tmax", "result": 2, "unit": "h"}, {"measurement": "Tmax", "setting": "[1]; compared with fasting, read-out: prolongation of median tmax by postprandial administration", "result": "~1.5", "unit": "h"}, {"measurement": "inhibitory effect on UGT1A1", "setting": "UGT1A1", "result": "inhibitory effect"}, {"measurement": "Kel, LS geometric mean", "setting": "[2]; [7]", "result": 0.16, "unit": "h⁻¹"}, {"measurement": "Kel, LS geometric mean", "setting": "[2]; Compound 1 150 mg alone, before meal", "result": 0.13, "unit": "h⁻¹"}, {"measurement": "AUC(0-inf)", "setting": "[2]; 150 mg", "result": 99500, "unit": "ng·h/mL"}, {"measurement": "AUC(0-t)", "setting": "[2]; 150 mg", "result": 95700, "unit": "ng·h/mL"}, {"measurement": "Cmax", "setting": "[2]; 150 mg", "result": 15200, "unit": "ng/mL"}, {"measurement": "half-life", "setting": "[2]; 150 mg", "result": 5.17, "unit": "h"}, {"measurement": "AUC(0-inf)", "setting": "[2]; [7]", "result": 45700, "unit": "ng·h/mL"}, {"measurement": "AUC(0-t)", "setting": "[2]; [7]", "result": 44500, "unit": "ng·h/mL"}, {"measurement": "Cmax", "setting": "[2]; [7]", "result": 8810, "unit": "ng/mL"}, {"measurement": "half-life", "setting": "[2]; [7]", "result": 4.33, "unit": "h"}, {"measurement": "IC50", "setting": "human PHD1", "result": 15.4, "unit": "nM"}, {"measurement": "serious TEAEs", "setting": "[3]", "result": "No serious TEAEs"}, {"measurement": "fraction unbound", "setting": "[4]", "result": "< 0.01"}, {"measurement": "tolerability", "setting": "[5]", "result": "well tolerated"}]}
